Results on ten molecules are retold here after patent US7141595B2, “Amino benzothiazole compounds with NOS inhibitory activity” (Neuraxon Inc., priority 2002, dated 2006).

Structures are written as SMILES. Structures can show the parent of a compound that is named as a salt.

In one assay the target is nNOS (UniProt P29476). The assay is described as follows: nNOS enzyme assay (hemoglobin capture assay). The following applies: initial velocity, read-out: IC50 of NOS, nNOS. It counts as biochemical. As to the method:
(§1) The reaction mixture for iNOS contained 10 mM of L-arginine, […], 6.5 mM BH4 and 3 mM oxyhemoglobin in 100 mM Hepes (pH 7.5). All assays were in a final volume of […] and were initiated with enzyme.
(§2) IC50 and percent inhibition of NOS by the compounds of the invention were determined under initial velocity measurement condition with hemoglobin capture assay as described above using varying concentrations of the compounds of the invention.

For another assay, the target named is T1, iNOS (UniProt P29477).
T1 sequence (P29477 1-1144): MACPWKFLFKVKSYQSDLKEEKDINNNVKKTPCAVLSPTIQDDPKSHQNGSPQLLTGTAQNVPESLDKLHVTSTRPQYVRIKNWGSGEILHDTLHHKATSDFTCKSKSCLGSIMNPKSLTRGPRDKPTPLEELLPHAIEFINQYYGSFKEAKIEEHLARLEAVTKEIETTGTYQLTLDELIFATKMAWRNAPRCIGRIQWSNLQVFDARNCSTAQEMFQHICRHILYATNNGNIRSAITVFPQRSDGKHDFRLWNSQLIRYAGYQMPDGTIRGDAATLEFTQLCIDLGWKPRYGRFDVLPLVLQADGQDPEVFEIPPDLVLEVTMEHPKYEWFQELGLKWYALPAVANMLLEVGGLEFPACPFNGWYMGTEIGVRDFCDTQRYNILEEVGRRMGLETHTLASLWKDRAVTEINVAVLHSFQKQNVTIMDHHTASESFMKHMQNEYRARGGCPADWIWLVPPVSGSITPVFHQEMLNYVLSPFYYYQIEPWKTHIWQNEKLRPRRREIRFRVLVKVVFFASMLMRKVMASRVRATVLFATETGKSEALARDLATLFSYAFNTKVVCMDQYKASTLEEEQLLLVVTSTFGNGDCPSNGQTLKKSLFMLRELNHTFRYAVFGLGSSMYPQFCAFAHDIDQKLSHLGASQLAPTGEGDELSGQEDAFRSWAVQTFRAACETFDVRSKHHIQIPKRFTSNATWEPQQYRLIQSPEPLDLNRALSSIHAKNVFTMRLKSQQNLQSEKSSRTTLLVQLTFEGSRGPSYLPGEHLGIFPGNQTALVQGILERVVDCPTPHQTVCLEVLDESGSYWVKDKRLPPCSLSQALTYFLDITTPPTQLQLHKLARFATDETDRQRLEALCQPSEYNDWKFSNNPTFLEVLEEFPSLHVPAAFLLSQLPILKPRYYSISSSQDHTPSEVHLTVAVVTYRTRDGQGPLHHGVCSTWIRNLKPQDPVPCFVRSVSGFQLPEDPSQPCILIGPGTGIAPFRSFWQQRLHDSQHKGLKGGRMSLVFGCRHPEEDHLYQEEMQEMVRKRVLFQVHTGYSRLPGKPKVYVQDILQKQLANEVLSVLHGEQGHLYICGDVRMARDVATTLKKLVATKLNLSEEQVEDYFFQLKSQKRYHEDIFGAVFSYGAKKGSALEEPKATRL
Put plainly: iNOS enzyme assay (hemoglobin capture assay). Format: biochemical. The following applies: initial velocity, read-out: IC50 of NOS, iNOS. How it is done: as §1, §2

The target of the next assay is T2, eNOS (UniProt P29473).
T2 sequence (P29473 1-1205): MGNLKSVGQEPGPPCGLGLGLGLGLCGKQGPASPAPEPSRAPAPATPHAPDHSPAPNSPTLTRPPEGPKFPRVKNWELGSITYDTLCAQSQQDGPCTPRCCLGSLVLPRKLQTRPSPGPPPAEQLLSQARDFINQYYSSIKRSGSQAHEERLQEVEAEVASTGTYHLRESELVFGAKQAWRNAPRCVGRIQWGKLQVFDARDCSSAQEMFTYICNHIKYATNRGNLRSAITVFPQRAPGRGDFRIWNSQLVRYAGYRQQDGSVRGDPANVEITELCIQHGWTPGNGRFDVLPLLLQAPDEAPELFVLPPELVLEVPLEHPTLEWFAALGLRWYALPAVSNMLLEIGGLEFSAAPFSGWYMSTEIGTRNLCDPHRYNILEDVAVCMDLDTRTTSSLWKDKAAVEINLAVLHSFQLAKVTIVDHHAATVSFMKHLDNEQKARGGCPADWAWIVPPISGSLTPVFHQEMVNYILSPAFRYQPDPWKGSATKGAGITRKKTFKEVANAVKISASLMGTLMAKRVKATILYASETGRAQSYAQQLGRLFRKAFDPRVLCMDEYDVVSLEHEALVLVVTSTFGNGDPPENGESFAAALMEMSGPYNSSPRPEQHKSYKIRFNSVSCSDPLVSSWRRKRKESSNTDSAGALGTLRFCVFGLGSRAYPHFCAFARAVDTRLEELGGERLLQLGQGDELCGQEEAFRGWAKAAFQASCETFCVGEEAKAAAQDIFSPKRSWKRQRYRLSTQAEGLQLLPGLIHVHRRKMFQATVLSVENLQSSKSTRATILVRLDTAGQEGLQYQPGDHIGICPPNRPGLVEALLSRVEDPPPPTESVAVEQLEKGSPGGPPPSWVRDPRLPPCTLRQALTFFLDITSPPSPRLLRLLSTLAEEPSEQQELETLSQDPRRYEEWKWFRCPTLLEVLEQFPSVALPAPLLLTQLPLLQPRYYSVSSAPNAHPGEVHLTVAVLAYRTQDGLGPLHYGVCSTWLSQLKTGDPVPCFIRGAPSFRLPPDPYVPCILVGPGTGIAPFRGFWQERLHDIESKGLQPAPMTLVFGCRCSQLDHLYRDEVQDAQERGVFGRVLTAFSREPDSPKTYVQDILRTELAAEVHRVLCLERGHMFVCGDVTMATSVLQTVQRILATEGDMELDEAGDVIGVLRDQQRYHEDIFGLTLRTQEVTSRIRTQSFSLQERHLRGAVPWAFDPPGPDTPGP
The assay is described as follows: eNOS enzyme assay (hemoglobin capture assay). Format: biochemical. The conditions noted are these: initial velocity, read-out: IC50 of NOS, eNOS. As to the method: The generation of nitric oxide by NOS was measured using the hemoglobin capture assay (Proc. Natl. Acad. Sci., U.S.A. 1990, 87, 714; Huang et al. J. Med. Chem. 2000, 43, 2938). An assay mixture for nNOS contained 10 mM L-arginine, 1.6 mM CaCl2, […] calmoduline, […], 6.5 mM BH4 and 3 mM oxyhemoglobin in 100 mM Hepes (pH 7.5). The reaction mixture for iNOS contained 10 mM of L-arginine, […], 6.5 mM BH4 and 3 mM oxyhemoglobin in 100 mM Hepes (pH 7.5). All assays were in a final volume of […] and were initiated with enzyme. Nitric oxide reacts with oxyhemoglobin to yield methehemoglobin which is detected at 401 nm (ε=19,700 M^−1cm^−1) on a Perkin-Elmer Lamda 10 UV/vis spectrophotometer.
as §2

Assay [1] deals with Rat cortical neuronal cultures. The assay is described as follows: Neuroprotection of rat cortical cells against NMDA challenge. The conditions noted are these: 25 μM NMDA 30 minutes; 60-minute pre-incubation; % cell death by propidium iodide after 24 hrs. Format: cell-based. How it is done: Rat cortical neuronal cultures were exposed for 30 minutes to 25 μM NMDA in buffer with or without the test compounds according to previously reported procedures (J. Neurosci. 2000 October 1; 20(19):7183–92). Test compounds were added for a 60-minute pre-incubation period in order to maximize the chance of seeing neuroprotection. After 24 hrs cultures were treated with propidium iodide and the % cell death determined.

In general, IC50 refers to the point on the concentration scale where inhibition reaches its midpoint. Consider `N=C(Nc1ccc2nc(NC3CCN(Cc4ccccc4)CC3)sc2c1)c1cccs1` [Example 36d, N-[2-(1-Benzyl-piperidin-4-ylamino)-benzothiazol-6-yl]-thiophene-2-carboxamidine], for which the IC50 was 1.6 µM on nNOS, 163 µM on iNOS and 210 µM on eNOS.

For the molecule `CSC(=N)Nc1ccc2nc(N)sc2c1` [Example 4, N-(2-Amino-benzothiazol-6-yl)-2-methylthiocarboximidamide], the IC50 at nNOS is 4.2 µM; at iNOS, 327 µM; on eNOS, 83.3 µM.

With `NC(=S)Nc1ccc2sc(N)nc2c1` [Example 18, (2-Amino-benzothiazol-5-yl)-thiourea], the values for the IC50 on nNOS, on iNOS and on eNOS were 57.8 µM, 123 µM and 145 µM, respectively.

As for `Nc1nc2cc(NC(=S)NC(=O)c3ccccc3)ccc2s1` [Example 17, 1-(2-Amino-benzothiazol-5-yl)-3-benzoyl-thiourea], the IC50 on nNOS came to 32.1 µM; at iNOS it was 275 µM; on eNOS it was 94 µM.

Turning to `N=C(Nc1ccc2nc(NCCN3CCOCC3)sc2c1)c1cccs1` [Example 36f, N-[2-(2-Morpholin-4-yl-ethylamino)-benzothiazol-6-yl]-thiophene-2-carboxamidine], the “neuroprotection during NMDA challenge” value in assay [1] is reported as “neuroprotection observed”. Besides, the IC50 on iNOS and on eNOS was over 300 µM each time.

Regarding `N=C(Nc1ccc2nc(NCCN3CCCC3)sc2c1)c1cccs1` [Example 13, N-[2-(2-pyrrolidin-1-ylethylamino)-benzothiazol-6-yl]-2-thiophenecarboximidamide], the IC50 on nNOS is 11.9 µM; at iNOS it was 125 µM; at eNOS it was 100 µM.

`N=C(Nc1ccc2nc(N)sc2c1)c1cccs1` [Example 9, N-(2-Amino-benzothiazol-6-yl)-2-thiophenecarboximidamide]: at eNOS, the IC50 stood at 119 µM.

Regarding `N=C(Nc1ccc2nc(NCCc3cnc[nH]3)sc2c1)c1cccs1` [Example 36(e), N-{2-[2-(3H-Imidazol-4-yl)-ethylamino]-benzothiazol-6-yl}-thiophene-2-carboxamidine], the “neuroprotection during NMDA challenge” value in assay [1] is given as “neuroprotection observed”.

As for `N=C(Nc1ccc2sc(N)nc2c1)c1cccs1` [Example 20, N-(2-Amino-benzothiazol-5-yl)-thiophene-2-carboxamidine hydrobromide], the IC50 on iNOS was 73 µM; on eNOS it was 169 µM.

As for `N=C(Nc1ccc2nc(NCCc3ccc(Br)cc3)sc2c1)c1cccs1` [Example 36b, N-{2-[2-(4-Bromo-phenyl)-ethylamino]-benzothiazol-6-yl}-thiophene-2-carboxamidine], the IC50 at nNOS came out at 1.46 µM; on iNOS it was 91 µM; at eNOS, 110 µM.
